Results taken from ChEMBL document CHEMBL3259531, “Discovery of novel type II c-Met inhibitors based on BMS-777607” (Eur J Med Chem, 2014).
Activity calls are given as the source filed them. The calls are words filed in the database; no cut-off is given here.

Tests used:
[1] = molecular target: T1, Hepatocyte growth factor receptor (Homo sapiens, UniProt P08581); assay: Inhibition of c-Met (unknown origin)
BaF3 [2] = assay: Cytotoxicity against mouse BAF3 cells expressing TPR-Met assessed as growth inhibition at 10 uM after 72 hrs relative to control; type: functional; conditions: BaF3, 72 h, read-out: GI
BaF3 [3] = assay: Cytotoxicity against mouse BAF3 cells expressing TPR-Met assessed as growth inhibition after 72 hrs; conditions: BaF3, 72 h
[4] = Cytotoxicity against human MKN45 cells assessed as growth inhibition after 72 hrs; conditions: MKN-45, 72 h
[5] = molecular target: T1, Hepatocyte growth factor receptor
[6] = molecular target: T1, Hepatocyte growth factor receptor; assay: Inhibition of c-Met (unknown origin) using poly Glu:Tyr (4:1) as substrate after 60 mins by ELISA
[7] = molecular target: T1, Hepatocyte growth factor receptor; remark: listed apart in the source
[8] = molecular target: T1, Hepatocyte growth factor receptor; assay: Inhibition of c-Met (unknown origin) using poly Glu:Tyr (4:1) as substrate at 10 uM after 60 mins by ELISA relative to control
BaF3 [9] = assay: Cytotoxicity against mouse BAF3 cells expressing TPR-Met assessed as growth inhibition at 1 uM after 72 hrs; type: functional, cell-based

## CCn1cnc(-c2cc3nccc(Oc4ccc(NC(=S)N5CCN(c6ccc(F)cc6)C5=O)cc4F)c3s2)c1
[1]
  IC50: 27 nM

## COc1cc2nccc(Oc3ccc(NC(=O)c4c(OC)ccn(-c5ccc(F)cc5)c4=O)cc3F)c2cc1OC
BaF3 [2]
  inhibition of growth at 10 µM: > 80%
BaF3 [3]
  IC50: 36.3 nM
[4]
  IC50: 57.7 nM

## Cc1ccc(NC(=O)C2CCCN(c3ccc(Oc4ccnc(N)c4Cl)c(F)c3)S2(=O)=O)cc1 (stereo not drawn)
[5]
  IC50: Not Active

## Nc1nccc(Oc2ccc(N3CCCC(C(=O)Nc4ccccc4)S3(=O)=O)cc2F)c1Cl (stereo not drawn)
[6]
  inhibition: inactive

## CCOc1ccn(-c2ccc(F)cc2)c(=O)c1C(=O)Nc1ccc(Oc2ccnc3cc(OC)c(OC)cc23)c(F)c1
BaF3 [2]
  inhibition of growth at 10 µM: > 80%
BaF3 [3]
  IC50: 19.5 nM
[4]
  IC50: 39.7 nM

## Nc1nccc(Oc2ccc(N3CCCC(C(=O)Nc4ccc(F)cc4)S3(=O)=O)cc2F)c1Cl (stereo not drawn)
[6]
  inhibition: inactive

## O=C(Nc1ccc(Oc2ncnc3[nH]ccc23)c(F)c1)c1cccn(-c2ccc(F)cc2)c1=O
BaF3 [2]
  inhibition of growth at 10 µM: > 80%

## Nc1nccc(Oc2ccc(NC(=O)c3cccn(-c4ccc(F)cc4)c3=O)cc2F)n1
[7]
  IC50: 39 nM

## CCOc1ccn(-c2ccc(F)cc2)c(=O)c1C(=O)Nc1ccc(Oc2ccnc(N)c2Cl)c(F)c1 [BMS-777607]
BaF3 [3]
  IC50: 188 nM
[4]
  IC50: 286 nM

## CCOc1ccn(-c2ccc(F)cc2)c(=O)c1C(=O)Nc1ccc(Oc2ncnc3[nH]ccc23)c(F)c1
BaF3 [2]
  inhibition of growth at 10 µM: > 80%

## COc1cc2nccc(Oc3ccc(NC(=O)c4cccn(-c5ccc(F)cc5)c4=O)cc3F)c2cc1OC
[8]
  inhibition: 29.7%

## COc1cc2nccc(Oc3ccc(NC(=O)c4c(I)ccn(-c5ccc(F)cc5)c4=O)cc3F)c2cc1OC
BaF3 [2]
  inhibition of growth at 10 µM: > 80%
BaF3 [9]
  growth inhibition (GI): Active
